Patent US10209241B2, “High throughput sensitization detection devices and methods” (Rutgers, The State University of New Jersey, priority 2011, dated 2019)

Test system: Mutz DCs with T-cells
Test: T-cell activation by sensitized dendritic cells in microfluidic well-trap device (Fluo-4 calcium flux, time lapse microscopy)
Format: cell-based
Details: Mutz DCs sensitized with PPD, Fluo-4 labeled T-cells in the chamber, time lapse microscopy (FIG. 5)
Description: T cells are isolated from the peripheral blood mononuclear fraction by positive selection using CD3 microbeads and magnetic cell separator (Miltenyi Biotec Inc., Auburn, Calif.), following the manufacturer's instructions. The T cells are frozen in liquid nitrogen and thawed prior to use. The T-cells are labeled with a calcium sensitive fluorescent dye, Fluo-4. The present method measures the increase in calcium flux into T-cells, as they form immunological synapses with dendritic cells. For labeling, the T cells are suspended at a density of 1-2×10^6 cells/ml in the medium supplemented with the fluo4 dye diluted to a final concentration of 1 μM. The cells are incubated at 37° C. for 20 minutes, and then washed twice to remove the remaining dye in the medium. The labeled T cells are suspended in the fresh medium prior to loading in the microdevice.
The device is first primed with PBS. Any bubbles, remaining from the priming process, are removed by placing the device in a vacuum dessicater for 1-2 minutes. Once primed, the device is flushed with media. Dendritic cells (DCs) are introduced into the device from inlet 1, by means of a 2.5 μL pipette. Additional head is provided by topping off the pipette tip attached to the device to the required level. The set-screw valves may be employed to adjust the flow to allow the cells to slow down enough so they can settle. […]

Nc1ccc(N)cc1 [PPD]
T-cell clustering around dendritic cells and fluorescence (calcium flux) over time: Clustering accompanied by increase in fluorescence is observed
